The text below walks through data of patent US7083799B1, “No-synthase inhibitors” (L'Oreal, priority 1995, dated 2006).

Data set [1] deals with mouse ear oedema induced by 0.01% 2-(5,6,7,8-tetrahydro-5,5,8,8-tetramethyl-2-naphthyl)-6-benzo[b]thiophenecarboxylic acid. Nature of the data set: mouse ear oedema test (ear thickness) induced by topical application of an irritant retinoid. The settings on record: curative. The class given is in vivo, mouse (Balb/C). Here is the method: This increase in the thickness of the mouse ear appears to be due to an increase in the thickness of the epidermis and to the appearance of a dermal oedema. This response can therefore be easily measured with the aid of an apparatus, such as the oditest.
(§1) 5 (=group 2) of the 10 mice thus treated are made to ingest orally N^G-nitro-L-arginine methyl ester in drinking water from t=0 and once per day for 11 days (N^G-nitro-L-arginine methyl ester concentration of 1 mg/ml, that is to say 170±40 mg/kg per day).
[…] The 5 mice which were not treated with […] constitute group 1.

The test system is the same in data set [2]. Described as above. It is filed as in vivo, mouse (Balb/C).
For the next data set, the system named is mouse ear. The note with it: in vivo.
Data set [3] in a line: observation of toxicity and weight change in mice given the inhibitor orally. It is filed as in vivo, mouse (Balb/C). The settings on record: oral in drinking water 1 mg/ml (170±40 mg/kg per day), once per day for 11 days. How it is done: as §1
[4] abbreviates: 1% by weight, topical from 6 hours after the irritant, once per day for 5 days.
Setting [5] is: 5%, topical from 6 hours after the irritant, once per day for 5 days, curative.
The mark [6] stands for this setting: gel 1% by weight, topical once per day for 4 days before the irritant, preventive, group A vs group B.

Consider `CNC(=N)NCCC[C@H](N)C(=O)O` [L-NMMA, N^G-monomethyl-L-arginine], for which, in data set [1] (setting [4]), the “inhibition of the ear oedema” value was found to be 28% and the “reduction of the area under the curve of the response induced by the irritant product (ear thickness vs days)” value (“reduction of the area” below) was determined as 51%. The “increase in the thickness of the mouse ear (maximum of group 1 without inhibitor = 100%)” value in data set [1] (gel 1% by weight, topical from 6 hours after the irritant, once per day for 5 days, after 5 days) worked out at 72%.

With `CN=C(NC)NCCC[C@H](N)C(=O)O` [SDMA, N^G,N^G-dimethyl-L-arginine, reference compound], in data set [1] (setting [4]), the “inhibition of the ear oedema” value worked out at 7% and the “reduction of the area” value is listed as 27%.

Regarding `C[N+](C)(C)CC(=O)O` [betaine, reference compound], in data set [1] (setting [4]), the “inhibition of the ear oedema” value stood at 9% and the “reduction of the area” value came to 24%. Besides, in data set [2] (setting [5]), the “inhibition of the ear oedema” value amounted to 16% and the “reduction of the area” value was found to be 13%.

In the case of `CN(C)C(N)=NCCC[C@H](N)C(=O)O` [N^G,N^G-dimethylarginine], in the data set on mouse ear, the “increase in the thickness of the ear by the inhibitor gel alone” value is reported as “No increase”. For the same compound, in data set [2] (setting [6]), the “reduction of the amplitude of the response induced by the irritant product” value came out at 24% and the “reduction of the area” value is 50%.

With `COC(=O)[C@@H](N)CCCNC(=N)N[N+](=O)[O-]` [N^G-nitro-L-arginine methyl ester, methyl ester of N^G-nitro-L-arginine], the “increase in the thickness of the mouse ear (maximum of group 1 without inhibitor = 100%)” value in data set [1] (oral in drinking water 1 mg/ml (170±40 mg/kg per day) from t=0, once per day, after 5 days of treatment) was 70%. Besides, the “inhibition of the ear oedema” value in data set [1] (oral in drinking water 1 mg/ml (170±40 mg/kg per day) from t=0, after 5 days) is 30%. In data set [3], the change in weight result is “not modified” and the sign of toxicity entry is on record as “no sign of toxicity”.
